Drawing on PubChem BioAssay (NCI), this text covers GI50 and TGI for 6 compounds.

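Briefly, cells in 96-well plates were exposed to five compound concentrations for 48 h, and endpoints were estimated by linear interpolation. GI50 = concentration required for 50% inhibition of growth. At the TGI there is no net growth.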 A value given as a limit tells only on which side of the number the result lay.

Assay in all cases: NCI anticancer screen, dose series, 48 h
The subject of assay [1] is SF-268 CNS.
The subject of assay [2] is OVCAR-4 ovarian.
Assay [3] has as its system RXF 393 renal.
Assay [4] relates to HOP-92 NSCLC.
The subject of assay [5] is SK-OV-3 ovarian.
The subject of assay [6] is HL-60(TB) leukemia.
The subject of assay [7] is SK-MEL-5 melanoma.
Assay [8] deals with PC-3 prostate.
Assay [9] concerns NCI-H226 lung.
Assay [10] deals with MDA-MB-231 breast.

For the compound `N#Cc1cc2c(cc1Cl)Sc1nnc(Nc3cccc4ccccc34)n1S2(=O)=O`, the GI50 in assay [1] was 2.85 µM; in assay [2], 6.48 µM; in assay [3] it was 2.02 µM; in [4], 14.7 µM; in assay [5] it was 17.4 µM; in assay [6], 2.75 µM. Besides, the GI50 in assay [7] was 3.95 µM; in assay [8] it was 4.75 µM; in assay [9] it was 7.83 µM; in [10], 2.49 µM. Further, the TGI was 10.1 µM in [1]; 26.8 µM in [2]; 4.15 µM in assay [3]; 30.1 µM in [4]; 35.1 µM in [5]; 20.2 µM in assay [6]. Further, the TGI in [7] is 15.7 µM; in [8], 18 µM; in assay [9], 20.9 µM; in [10], 6.96 µM.

Regarding `COc1cc(/C=C/C(=O)O[C@H]2[C@H](O[C@@H]3O[C@@H](C)[C@H](O)[C@@H](O)[C@H]3O)[C@@H](O)[C@H](OCCc3ccc(O)c(O)c3)O[C@@H]2COC2OCC(O)(CO)C2O)ccc1O` (stereo not given in full), the GI50 in [1] is 49.3 µM; in assay [2], more than 100 µM; in assay [3] it was more than 100 µM; in assay [4], 0.402 µM; in assay [5], more than 100 µM; in assay [6], more than 100 µM. Besides, the GI50 in [7], in assay [8], in [9] and in assay [10] was more than 100 µM in each case. For the same compound, the TGI in assay [1], in assay [2], in assay [3], in assay [4], in assay [5] and in assay [6] was more than 100 µM throughout. Moreover, the TGI in [7], in assay [8], in assay [9] and in [10] was more than 100 µM in each case.

As for `c1ccc(C2CCCCC2)c(OCCCCCN2CCNCC2)c1`, the GI50 in [1] is 5.14 µM; in [2], 4.01 µM; in assay [3], 1.77 µM; in assay [4], 4.44 µM; in [5] it was 6.51 µM; in assay [6], 1.72 µM. Moreover, the GI50 in [7] was 1.45 µM; in [8] it was 3.19 µM; in assay [9], 22.4 µM; in [10], 1.62 µM. The TGI in assay [1] was found to be 21.4 µM; in assay [2], 17 µM; in [3] it was 4.02 µM; in assay [4], 23 µM; in assay [5] it was 21.8 µM; in assay [6], 3.94 µM. Besides, the TGI turned out to be 2.81 µM in assay [7], 18.4 µM in assay [8], 48.5 µM in assay [9] and 3.75 µM in assay [10].

With `c1ccc(CN2COc3c(ccc4c5c(ccc34)CN(Cc3ccccc3)CO5)C2)cc1`, the TGI in [1], in assay [2], in assay [3], in assay [4], in [5] and in assay [6] was more than 100 µM in each case. In addition, the TGI in assay [7], in assay [8], in assay [9] and in [10] was more than 100 µM in each case.

For the compound `CN(C)CCCn1c2c(c3cc4c(cc3c1=O)OCO4)C(=O)c1ccccc1-2`, the GI50 was 13.9 µM in [1]; 0.715 µM in assay [2]; 0.852 µM in assay [3]; 0.713 µM in assay [4]; 4.99 µM in assay [5]; 3.35 µM in [6]. Besides, the GI50 in assay [7] is 1.93 µM; in assay [8] it was 0.365 µM; in assay [9], 3.25 µM; in assay [10], 0.465 µM. The TGI in assay [1] was more than 44.4 µM; in [2], more than 23.3 µM; in [3], 8.93 µM; in [4] it was 6.37 µM; in assay [5] it was more than 39.3 µM; in assay [6], 20.4 µM. Moreover, the TGI in [7] was found to be 7.07 µM; in assay [8], 3.59 µM; in [9], 11.3 µM; in assay [10], 4.29 µM.

Turning to `NC(=O)CC(N)c1nn[nH]n1` (stereo not given), the TGI in assay [1], in assay [2], in [3], in [4], in assay [5] and in [6] was more than 100 µM each time. For the same compound, the TGI in [7], in [8], in [9] and in assay [10] was more than 100 µM each time.
